Legend:
[1] = target: T1, wild type Bcr-abl (Ba/F3 cells) (Homo sapiens, UniProt P00519); assay: Proliferation of Ba/F3 cells expressing wild type Bcr-abl; assay type: cell-based
T1 construct: expressed in transfected cells; host or cells: Ba/F3 (murine pro-B cells); the other entry of the earlier key: BCR (P11274, Breakpoint cluster region protein)
Experimental: (§1) 2D-p210 cells are plated into 96 well TC plates at a density of 15,000 cells per well. 50 μL of two fold serial dilutions of the test compound (Cmax is 40 μM) are added to each well (STI571 is included as a positive control). After incubating the cells for 48 hours at 37° C., 5% CO2, 15 μL of MTT (Promega) is added to each well and the cells are incubated for an additional 5 hours. The optical density at 570 nm is quantified spectrophotometrically and IC50 values, the concentration of compound required for 50% inhibition, determined from a dose response curve.
(§2) Compounds of the invention are tested for their antiproliferative effect on Ba/F3 cells expressing either wild type or the mutant forms of BCR-Abl (G250E, E255V, T315I, F317L, M351T) that confers resistance or diminished sensitivity to STI571. The antiproliferative effect of these compounds on the mutant-BCR-Abl expressing cells and on the non transformed cells were tested at 10, 3.3, 1.1 and 0.37 μM as described above (in media lacking IL3). The IC50 values of the compounds lacking toxicity on the untransformed cells were determined from the dose response curves obtained as describe above.

[2] = target: T2, G250E Bcr-abl (Ba/F3 cells) (Homo sapiens, UniProt P00519, G250E); assay: Proliferation of Ba/F3 cells expressing mutant Bcr-abl G250E; assay type: cell-based
T2 construct: expressed in transfected cells; host or cells: Ba/F3; the other entry of the earlier key: BCR (P11274, Breakpoint cluster region protein)
Experimental: as §1, §2

[3] = target: T3, E255V Bcr-abl (Ba/F3 cells) (Homo sapiens, UniProt P00519, E255V); assay: Proliferation of Ba/F3 cells expressing mutant Bcr-abl E255V; assay type: cell-based
T3 construct: expressed in transfected cells; host or cells: Ba/F3; the other entry of the earlier key: BCR (P11274, Breakpoint cluster region protein)
Experimental: as §1, §2

[4] = target: T4, F317L Bcr-abl (Ba/F3 cells) (Homo sapiens, UniProt P00519, F317L); assay: Proliferation of Ba/F3 cells expressing mutant Bcr-abl F317L; assay type: cell-based
T4 construct: expressed in transfected cells; host or cells: Ba/F3; the other entry of the earlier key: BCR (P11274, Breakpoint cluster region protein)
Experimental: as §1, §2

[5] = system: b-Raf (A375 cells, V599E mutation); assay: b-Raf cellular assay (phosphorylation of MEK in A375 cells); assay type: cell-based; conditions: Homo sapiens, A-375, phospho-MEK
Experimental: Compounds of the invention are tested in A375 cells for their ability to inhibit phosphorylation of MEK. A375 cell line (ATCC) is derived from a human melanoma patient and it has a V599E mutation on the B-Raf gene. The levels of phosphorylated MEK are elevated due to the mutation of B-Raf. Sub-confluent to confluent A375 cells are incubated with compounds for 2 hours at 37° C. in serum free medium. Cells are then washed once with cold PBS and lysed with the lysis buffer containing 1% Triton X100. After centrifugation, the supernatants are subjected to SDS-PAGE, and then transferred to nitrocellulose membranes. The membranes are then subjected to western blotting with anti-phospho-MEK antibody (ser217/221) (Cell Signaling). The amount of phosphorylated MEK is monitored by the density of phospho-MEK bands on the nitrocellulose membranes.

[6] = target: T5, PDGFRβ (Ba/F3-Tel-PDGFRβ) (Homo sapiens, UniProt P09619); assay: PDGFRβ cellular assay (Ba/F3-Tel-PDGFRβ proliferation); assay type: cell-based; conditions: read-out: IC50 against PDGFRβ in the cellular assay
T5 construct: expressed in transfected cells; host or cells: Ba/F3; the other entry of the earlier key: ETV6 (P41212, Transcription factor ETV6)

[7] = target: T6, Abl (Homo sapiens, UniProt P00519); assay: Upstate KinaseProfiler radio-enzymatic filter binding assay; assay type: biochemical; conditions: at a concentration of 10 μM; read-out: percentage inhibition of Abl
T6 construct: purchased Upstate
Experimental: (§3) Compounds of the invention are assessed for their ability to inhibit individual members of a panel of kinases (a partial, non-limiting list of kinases includes: Abl, BMX, BTK, CHK2, c-RAF, CSK, c-SRC, Fes, FGFR3, Flt3, IKKα, IKKβ, JNK2α2, Lck, Met, MKK4, MKK6, MST2, NEK2, p70S6K, PDGFRβ, PKA, PKBα, PKD2, Rsk1, SAPK2α, SAPK2β, SAPK3, SGK, Tie2 and/or TrkB. The compounds are tested in duplicates at a final concentration of 10 μM following this generic protocol. Note that the kinase buffer composition and the substrates vary for the different kinases included in the “Upstate KinaseProfiler™” panel. Kinase buffer (2.5 μL, 10×—containing MnCl2 when required), active kinase (0.001-0.01 Units; 2.5 μL), specific or Poly(Glu4-Tyr) peptide (5-500 μM or 0.01 mg/ml) in kinase buffer and kinase buffer (50 μM; 5 μL) are mixed in an eppendorf on ice. A Mg/ATP mix (10 μL; 67.5 (or 33.75) mM MgCl2, 450 (or 225) μM ATP and 1 μCi/μl [γ-^32P]-ATP (3000 Ci/mmol)) is added and the reaction is incubated at about 30° C. for about 10 minutes. The reaction mixture is spotted (20 μL) onto a 2 cm×2 cm P81 (phosphocellulose, for positively charged peptide substrates) or Whatman No. 1 (for Poly (Glu4-Tyr) peptide substrate) paper square. The assay squares are washed 4 times, for 5 minutes each, with 0.75% phosphoric acid and washed once with acetone for 5 minutes. The assay squares are transferred to a scintillation vial, 5 ml scintillation cocktail are added and ^32P incorporation (cpm) to the peptide substrate is quantified with a Beckman scintillation counter. Percentage inhibition is calculated for each reaction.

[8] = system: Bcr-Abl; assay: as above; assay type: biochemical; conditions: at a concentration of 10 μM
Experimental: as §3

[9] = target: T7, FGFR3 (Homo sapiens, UniProt P22607); assay: as above; assay type: biochemical; conditions: at a concentration of 10 μM; read-out: percentage inhibition of FGFR3
T7 construct: purchased Upstate
Experimental: as §3

[10] = target: T8, Fes (Homo sapiens, UniProt P07332); assay: as above; assay type: biochemical; conditions: at a concentration of 10 μM; read-out: percentage inhibition of Fes
T8 construct: purchased Upstate
Experimental: as §3

[11] = target: T9, Lck (Homo sapiens, UniProt P06239); assay: as above; assay type: biochemical; conditions: at a concentration of 10 μM; read-out: percentage inhibition of Lck
T9 construct: purchased Upstate
Experimental: as §3

[12] = target: T10, MKK6 (Homo sapiens, UniProt P52564); assay: as above; assay type: biochemical; conditions: at a concentration of 10 μM; read-out: percentage inhibition of MKK6
T10 construct: purchased Upstate
Experimental: as §3

[13] = target: T11, Rsk1 (Homo sapiens, UniProt Q15418); assay: as above; assay type: biochemical; conditions: at a concentration of 10 μM; read-out: percentage inhibition of Rsk1
T11 construct: purchased Upstate
Experimental: as §3

T11 sequence (Q15418 whole entry): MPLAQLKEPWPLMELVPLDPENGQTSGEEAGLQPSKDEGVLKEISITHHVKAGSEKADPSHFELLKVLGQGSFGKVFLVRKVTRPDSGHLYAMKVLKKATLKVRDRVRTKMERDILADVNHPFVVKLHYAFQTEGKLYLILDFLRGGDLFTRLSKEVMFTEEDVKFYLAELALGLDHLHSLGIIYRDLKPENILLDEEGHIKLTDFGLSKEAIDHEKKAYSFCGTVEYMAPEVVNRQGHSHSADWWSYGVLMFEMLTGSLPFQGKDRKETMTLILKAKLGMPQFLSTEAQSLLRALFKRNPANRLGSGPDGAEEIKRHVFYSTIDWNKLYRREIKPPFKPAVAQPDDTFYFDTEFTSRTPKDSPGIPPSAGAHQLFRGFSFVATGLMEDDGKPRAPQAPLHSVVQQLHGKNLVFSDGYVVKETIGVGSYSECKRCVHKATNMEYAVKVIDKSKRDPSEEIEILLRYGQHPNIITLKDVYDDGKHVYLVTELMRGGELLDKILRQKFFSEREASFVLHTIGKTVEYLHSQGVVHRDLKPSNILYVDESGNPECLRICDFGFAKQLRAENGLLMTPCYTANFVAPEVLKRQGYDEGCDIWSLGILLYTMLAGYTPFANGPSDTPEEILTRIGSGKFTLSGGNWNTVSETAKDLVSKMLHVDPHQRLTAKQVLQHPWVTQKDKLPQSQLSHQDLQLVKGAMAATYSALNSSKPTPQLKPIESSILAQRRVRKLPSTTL
T9 sequence (P06239 whole entry): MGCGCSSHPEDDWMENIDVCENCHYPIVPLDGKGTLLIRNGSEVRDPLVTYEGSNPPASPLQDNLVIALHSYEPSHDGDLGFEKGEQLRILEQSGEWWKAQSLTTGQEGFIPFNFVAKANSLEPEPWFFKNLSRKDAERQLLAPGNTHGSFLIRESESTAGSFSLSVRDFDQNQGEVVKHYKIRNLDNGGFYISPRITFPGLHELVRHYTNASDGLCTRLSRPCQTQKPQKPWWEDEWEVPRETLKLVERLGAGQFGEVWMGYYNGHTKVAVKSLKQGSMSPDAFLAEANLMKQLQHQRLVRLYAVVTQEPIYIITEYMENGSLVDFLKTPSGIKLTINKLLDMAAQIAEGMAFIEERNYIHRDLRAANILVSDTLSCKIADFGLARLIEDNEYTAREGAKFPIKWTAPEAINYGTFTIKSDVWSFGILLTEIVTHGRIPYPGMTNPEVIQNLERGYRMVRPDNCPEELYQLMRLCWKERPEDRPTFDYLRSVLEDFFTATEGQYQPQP
T7 sequence (P22607 23-806): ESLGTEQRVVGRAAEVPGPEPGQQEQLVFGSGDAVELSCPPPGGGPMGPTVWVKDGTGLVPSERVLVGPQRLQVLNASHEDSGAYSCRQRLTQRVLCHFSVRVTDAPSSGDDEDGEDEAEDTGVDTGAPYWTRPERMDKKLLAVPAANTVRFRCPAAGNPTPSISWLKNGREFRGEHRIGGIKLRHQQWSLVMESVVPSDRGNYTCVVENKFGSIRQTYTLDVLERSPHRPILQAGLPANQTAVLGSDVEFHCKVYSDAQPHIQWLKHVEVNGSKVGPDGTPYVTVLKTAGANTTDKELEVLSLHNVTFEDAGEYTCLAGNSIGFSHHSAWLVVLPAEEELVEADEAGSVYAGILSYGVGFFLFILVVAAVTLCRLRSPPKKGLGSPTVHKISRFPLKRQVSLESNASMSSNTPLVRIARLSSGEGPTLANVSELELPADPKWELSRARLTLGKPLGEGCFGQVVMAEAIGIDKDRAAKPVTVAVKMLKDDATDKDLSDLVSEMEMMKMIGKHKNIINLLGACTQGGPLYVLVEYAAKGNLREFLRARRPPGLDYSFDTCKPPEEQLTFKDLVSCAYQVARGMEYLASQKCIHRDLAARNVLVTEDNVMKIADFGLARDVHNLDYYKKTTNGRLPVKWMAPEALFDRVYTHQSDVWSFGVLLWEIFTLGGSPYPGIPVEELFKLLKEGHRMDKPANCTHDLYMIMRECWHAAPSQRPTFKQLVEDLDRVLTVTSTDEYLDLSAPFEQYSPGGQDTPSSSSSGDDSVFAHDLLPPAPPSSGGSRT
T5 sequence (P09619 600-962 limits assumed): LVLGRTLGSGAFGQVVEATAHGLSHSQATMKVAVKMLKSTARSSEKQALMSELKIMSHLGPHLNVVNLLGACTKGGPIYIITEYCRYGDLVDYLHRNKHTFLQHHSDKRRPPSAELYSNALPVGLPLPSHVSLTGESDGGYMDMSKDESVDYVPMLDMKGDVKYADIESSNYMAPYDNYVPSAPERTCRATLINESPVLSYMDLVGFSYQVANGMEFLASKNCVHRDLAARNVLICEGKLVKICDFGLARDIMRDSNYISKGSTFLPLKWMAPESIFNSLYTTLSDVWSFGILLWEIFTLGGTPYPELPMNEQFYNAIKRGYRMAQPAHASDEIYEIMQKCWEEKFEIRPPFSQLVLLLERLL
T10 sequence (P52564 whole entry): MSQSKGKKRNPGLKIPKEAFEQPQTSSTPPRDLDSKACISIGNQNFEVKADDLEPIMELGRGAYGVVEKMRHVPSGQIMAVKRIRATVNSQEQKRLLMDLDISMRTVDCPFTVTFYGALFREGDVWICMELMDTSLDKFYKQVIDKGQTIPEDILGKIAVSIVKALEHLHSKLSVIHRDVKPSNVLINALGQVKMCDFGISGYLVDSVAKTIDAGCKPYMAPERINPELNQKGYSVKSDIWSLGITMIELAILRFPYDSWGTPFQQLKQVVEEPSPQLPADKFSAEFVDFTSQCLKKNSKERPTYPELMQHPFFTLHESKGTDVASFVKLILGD
T8 sequence (P07332 whole entry): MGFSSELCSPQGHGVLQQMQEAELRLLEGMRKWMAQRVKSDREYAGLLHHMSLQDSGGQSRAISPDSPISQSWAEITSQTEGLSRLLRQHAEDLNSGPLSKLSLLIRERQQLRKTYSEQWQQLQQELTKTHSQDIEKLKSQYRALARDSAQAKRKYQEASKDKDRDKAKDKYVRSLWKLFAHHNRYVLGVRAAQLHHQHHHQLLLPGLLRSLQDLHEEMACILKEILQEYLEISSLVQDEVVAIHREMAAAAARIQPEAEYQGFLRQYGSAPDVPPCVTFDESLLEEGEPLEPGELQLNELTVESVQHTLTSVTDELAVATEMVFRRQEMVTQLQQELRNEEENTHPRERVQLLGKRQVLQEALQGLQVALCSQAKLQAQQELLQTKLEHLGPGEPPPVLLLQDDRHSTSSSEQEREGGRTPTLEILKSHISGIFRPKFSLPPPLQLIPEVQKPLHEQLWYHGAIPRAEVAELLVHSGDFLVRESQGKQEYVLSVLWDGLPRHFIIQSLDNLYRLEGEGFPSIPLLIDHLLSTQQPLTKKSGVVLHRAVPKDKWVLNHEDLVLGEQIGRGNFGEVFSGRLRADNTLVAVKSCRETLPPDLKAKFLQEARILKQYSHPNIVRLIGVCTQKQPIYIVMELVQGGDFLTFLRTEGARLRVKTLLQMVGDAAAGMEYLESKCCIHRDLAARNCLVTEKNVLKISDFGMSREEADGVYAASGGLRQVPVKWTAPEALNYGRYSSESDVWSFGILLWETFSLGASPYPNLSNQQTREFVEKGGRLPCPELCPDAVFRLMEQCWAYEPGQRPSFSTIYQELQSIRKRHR

Cc1cn(-c2cc(C(=O)Nc3ccc(C)c(Nc4nccn4-c4ncnc5[nH]ccc45)c3)cc(C(F)(F)F)c2)cn1 [Example 2, 3-(4-methyl-imidazol-1-yl)-N-{4-methyl-3-[1-(7H-pyrrolo[2,3-d]pyrimidin-4-yl)-1H-imidazol-2-ylamino]-phenyl}-5-trifluoromethyl-benzamide]
IC50 [1]: < 0.5 nM | IC50 [2]: 56 nM | IC50 [3]: 43 nM | IC50 [4]: < 0.5 nM | IC50 [5]: 32 nM | IC50 [6]: 4 nM | inhibition at 10 µM [7]: 99% | percentage inhibition of Bcr-Abl [8]: 99% | inhibition at 10 µM [9]: 89% | inhibition at 10 µM [10]: 71% | inhibition at 10 µM [11]: 99% | inhibition at 10 µM [12]: 99% | inhibition at 10 µM [13]: 88%

From patent publication US20080188483A1, “Compounds and Compositions as Protein Kinase Inhibitors” (IRM LLC, priority 2006, published 2008)
